# Assay results from ChEMBL document CHEMBL1143264 (Bioorg Med Chem Lett, 2009).
# Key:
# Type in all cases: cell membranes
# [1] = target: Neuronal acetylcholine receptor; alpha4/beta2 (Rattus norvegicus, UniProt P09483+P12390); assay: Displacement of [3H]epibatidine from alpha-4-beta-2 nAchR in rat brain cortex membrane
# [2] = target: Neuronal acetylcholine receptor subunit alpha-7 (Rattus norvegicus, UniProt Q05941); assay: Displacement of [125I]alpha-Bungarotoxin from alpha-7 nAchR in rat brain cortex membrane
# [3] = target: T1, Adrenergic receptor alpha-2 (Rattus norvegicus, UniProt P22086+P19328+P22909); assay: Displacement of [3H]RS 79948-197 from alpha-2 adrenergic receptor in rat brain cortex membrane
# T1 sequence (P22086 whole entry): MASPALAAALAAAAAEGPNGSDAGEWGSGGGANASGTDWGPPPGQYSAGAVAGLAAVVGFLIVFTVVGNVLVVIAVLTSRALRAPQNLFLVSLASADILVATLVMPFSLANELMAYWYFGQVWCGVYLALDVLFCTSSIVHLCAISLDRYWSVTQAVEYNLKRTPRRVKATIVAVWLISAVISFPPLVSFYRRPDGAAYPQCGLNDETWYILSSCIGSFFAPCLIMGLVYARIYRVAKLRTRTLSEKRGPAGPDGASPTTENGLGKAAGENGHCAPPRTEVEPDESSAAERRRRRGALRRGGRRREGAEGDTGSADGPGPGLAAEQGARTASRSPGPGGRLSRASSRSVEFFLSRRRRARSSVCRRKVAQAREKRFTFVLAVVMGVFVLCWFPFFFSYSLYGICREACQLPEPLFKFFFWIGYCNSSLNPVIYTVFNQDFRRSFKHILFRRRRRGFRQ
# T1 sequence (P19328 whole entry): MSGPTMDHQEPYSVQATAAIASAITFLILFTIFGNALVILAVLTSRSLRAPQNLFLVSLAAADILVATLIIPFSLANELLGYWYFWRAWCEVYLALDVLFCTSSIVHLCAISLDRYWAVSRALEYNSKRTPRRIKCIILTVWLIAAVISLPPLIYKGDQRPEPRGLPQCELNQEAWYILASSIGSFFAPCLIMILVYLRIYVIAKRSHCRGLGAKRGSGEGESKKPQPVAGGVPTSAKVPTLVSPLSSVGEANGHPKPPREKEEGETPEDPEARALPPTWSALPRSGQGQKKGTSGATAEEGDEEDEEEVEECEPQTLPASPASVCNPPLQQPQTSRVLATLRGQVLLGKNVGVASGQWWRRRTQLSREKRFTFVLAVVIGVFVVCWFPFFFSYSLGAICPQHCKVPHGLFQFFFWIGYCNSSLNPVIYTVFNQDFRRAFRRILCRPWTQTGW
# T1 sequence (P22909 whole entry): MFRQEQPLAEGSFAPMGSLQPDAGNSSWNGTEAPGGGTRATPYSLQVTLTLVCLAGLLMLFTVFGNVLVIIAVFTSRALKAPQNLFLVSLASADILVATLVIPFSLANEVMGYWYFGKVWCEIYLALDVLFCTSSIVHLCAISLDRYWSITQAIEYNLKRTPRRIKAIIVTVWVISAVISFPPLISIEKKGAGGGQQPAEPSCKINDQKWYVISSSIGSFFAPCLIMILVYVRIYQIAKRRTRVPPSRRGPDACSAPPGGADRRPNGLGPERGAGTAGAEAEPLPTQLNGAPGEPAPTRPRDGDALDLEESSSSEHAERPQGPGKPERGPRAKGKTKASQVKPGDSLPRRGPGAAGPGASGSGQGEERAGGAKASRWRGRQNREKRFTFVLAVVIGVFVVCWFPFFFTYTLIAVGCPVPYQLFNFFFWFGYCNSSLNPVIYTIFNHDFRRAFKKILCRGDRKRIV
# Chain of Neuronal acetylcholine receptor; alpha4/beta2 (P09483 whole entry): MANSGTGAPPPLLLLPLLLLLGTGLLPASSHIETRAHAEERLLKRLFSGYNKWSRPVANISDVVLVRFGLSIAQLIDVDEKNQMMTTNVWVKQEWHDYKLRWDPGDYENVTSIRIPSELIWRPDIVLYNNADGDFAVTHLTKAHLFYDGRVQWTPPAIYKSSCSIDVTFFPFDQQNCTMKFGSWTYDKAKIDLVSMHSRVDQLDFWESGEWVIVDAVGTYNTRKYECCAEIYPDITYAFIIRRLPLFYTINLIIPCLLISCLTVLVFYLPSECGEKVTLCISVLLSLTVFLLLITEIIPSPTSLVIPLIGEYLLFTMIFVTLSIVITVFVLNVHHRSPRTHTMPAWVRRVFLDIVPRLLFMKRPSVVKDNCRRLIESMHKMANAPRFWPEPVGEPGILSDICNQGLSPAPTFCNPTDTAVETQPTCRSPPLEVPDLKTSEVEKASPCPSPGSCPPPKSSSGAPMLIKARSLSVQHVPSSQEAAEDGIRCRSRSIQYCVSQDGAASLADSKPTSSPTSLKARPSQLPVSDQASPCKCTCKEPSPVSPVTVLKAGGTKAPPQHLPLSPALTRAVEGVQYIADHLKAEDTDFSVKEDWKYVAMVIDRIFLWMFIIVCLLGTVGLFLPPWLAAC
# Chain of Neuronal acetylcholine receptor; alpha4/beta2 (P12390 whole entry): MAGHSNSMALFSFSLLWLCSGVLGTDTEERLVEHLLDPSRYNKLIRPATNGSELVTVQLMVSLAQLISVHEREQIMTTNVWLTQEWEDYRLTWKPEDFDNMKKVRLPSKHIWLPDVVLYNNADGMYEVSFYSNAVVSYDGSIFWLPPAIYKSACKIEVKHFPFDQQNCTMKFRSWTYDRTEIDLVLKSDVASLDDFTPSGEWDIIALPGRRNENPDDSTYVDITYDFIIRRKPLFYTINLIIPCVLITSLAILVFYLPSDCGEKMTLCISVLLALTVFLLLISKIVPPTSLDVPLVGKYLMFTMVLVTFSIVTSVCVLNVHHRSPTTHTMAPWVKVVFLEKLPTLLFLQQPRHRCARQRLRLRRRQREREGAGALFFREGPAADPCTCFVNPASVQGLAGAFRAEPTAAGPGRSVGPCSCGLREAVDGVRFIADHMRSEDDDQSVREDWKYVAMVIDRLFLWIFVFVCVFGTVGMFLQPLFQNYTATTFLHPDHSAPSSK
# Chain of Neuronal acetylcholine receptor subunit alpha-7 (Q05941 whole entry): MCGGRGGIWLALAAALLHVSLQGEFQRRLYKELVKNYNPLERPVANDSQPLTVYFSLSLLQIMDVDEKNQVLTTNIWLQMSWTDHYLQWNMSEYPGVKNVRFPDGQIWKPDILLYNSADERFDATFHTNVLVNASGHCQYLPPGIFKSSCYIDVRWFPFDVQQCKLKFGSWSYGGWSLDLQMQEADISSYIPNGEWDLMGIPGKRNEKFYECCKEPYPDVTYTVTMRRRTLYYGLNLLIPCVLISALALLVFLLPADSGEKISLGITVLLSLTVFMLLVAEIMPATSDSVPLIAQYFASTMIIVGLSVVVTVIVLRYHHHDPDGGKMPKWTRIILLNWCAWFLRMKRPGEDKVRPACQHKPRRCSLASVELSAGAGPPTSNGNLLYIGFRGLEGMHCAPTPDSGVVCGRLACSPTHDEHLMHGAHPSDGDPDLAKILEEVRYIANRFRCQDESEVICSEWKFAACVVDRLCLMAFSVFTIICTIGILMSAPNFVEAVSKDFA
Structure (SMILES),Ki [1] [µM],Ki [2] [µM],Ki [3] [µM]
CN1CCC[C@@H]1[C@@H]1COc2ccccc2O1.Cl,43.8,14.8,6.67
CN1CCC[C@@H]1[C@H]1COc2ccccc2O1,12.5,35,–
Cl.c1ccc2c(c1)OC[C@@H]([C@H]1CCCN1)O2,11.6,27,6.33
CN1CCC[C@H]1[C@@H]1CNC(=O)O1,2.7,21,–
CN1CCC[C@@H]1[C@H]1CNC(=O)O1,40,100,–
Cl.c1ccc2c(c1)OC[C@H]([C@@H]1CCCN1)O2,14.4,32.2,0.64
CN1CCC[C@H]1[C@H]1COc2ccccc2O1.Cl,0.47,14.6,1.67
Cl.c1ccc2c(c1)OC[C@@H]([C@@H]1CCCN1)O2,2.1,36,1.35
CN1CCC[C@H]1[C@H]1CNC(=O)O1,35,100,–
CN1CCC[C@H]1[C@@H]1COc2ccccc2O1,0.26,21,–
CN1CCC[C@@H]1[C@@H]1CNC(=O)O1,37,43,–
Cl.c1ccc2c(c1)OC[C@H]([C@H]1CCCN1)O2,88,14.7,14
